Test results from patent US20260217651A1 (priority 2022, published 2026).
Like-named read-outs stand apart in the source and are kept apart here.

Experiments:
SD rats [1] = assay: animal or person; format: in vivo; details: Rattus norvegicus, iv, read-out: Minimal effective analgesic dose(mg/kg)
SD rats [2] = assay: animal or person; format: in vivo, rat; details: iv; for minimal effective dose: Rattus norvegicus, read-out: Minimal effective anesthetic dose(mg/kg); for Onset time / Righting Reflex Duration / Sedation Duration / Minimal effective anesthetic dose(mg/kg): rat, in vivo

Row | SMILES | minimal effective dose (SD rats [1]) | minimal effective dose (SD rats [2]) | Onset time (SD rats [2]) | Righting Reflex Duration (SD rats [2]) | Sedation Duration (SD rats [2]) | Minimal effective anesthetic dose(mg/kg) (SD rats [2])
1 | CCC(=O)N(c1ccccc1)C1CCN(c2cc(C(C)C)c(O)c(C(C)C)c2)CC1 [Cpd-1] | < 5 mg/kg | < 5 mg/kg | 0.38 to 0.62 min | 6.27 to 10.78 min | 19.02 to 22.97 min | 
2 | CCCC(=O)N(c1ccccc1)C1CCN(c2cc(C(C)C)c(O)c(C(C)C)c2)CC1 [Cpd-13] | 5 to 10 mg/kg | 5 to 10 mg/kg | 0.35 min | 20.27 min | 41.57 min | 
3 | CCOC(=O)C1(c2ccccc2)CCN(c2cc(C(C)C)c(O)c(C(C)C)c2)CC1 [Cpd-21] | < 5 mg/kg | < 5 mg/kg | 1.35 min | 1.32 min | 20.10 min | 
4 | CCOC(=O)C1(c2cccs2)CCN(c2cc(C(C)C)c(O)c(C(C)C)c2)CC1 [Cpd-24] | 5 to 10 mg/kg | 5 to 10 mg/kg | 0.85 min | 11.60 min | 21.70 min | 
5 | CCOC(=O)C1(c2ccccc2)CCN(c2cc(C(C)C)c(O)c([C@H](C)C3CC3)c2)CC1 [Cpd-25] | 5 to 10 mg/kg | 5 to 10 mg/kg | 1.28 to 2.95 min | 3.45 to 6.43 min | 17.48 to 23.03 min | 
6 | CC(C)OC(=O)C1(c2ccccc2)CCN(c2cc(C(C)C)c(O)c(C(C)C)c2)CC1 [Cpd-26] | 5 to 10 mg/kg | 5 to 10 mg/kg | 0.98 to 1.77 min | 12.33 to 28.05 min | 26.52 to 182.97 min | 
7 | CCOC(=O)C1(c2ccc(Cl)cc2Cl)CCN(c2cc(C(C)C)c(O)c(C(C)C)c2)CC1 [Cpd-28] | 20 to 40 mg/kg | 20 to 40 mg/kg | 0.73 to 1.02 min | 2.97 to 12.00 min | 31.98 to 218.72 min | 
8 | CCOC(=O)C1(c2cccc(OC)c2)CCN(c2cc(C(C)C)c(O)c(C(C)C)c2)CC1 [Cpd-39] | 10 to 20 mg/kg | 10 to 20 mg/kg | 0.73 to 1.07 min | 7.45 to 24.00 min | 34.33 to 39.48 min | 
9 | COC(=O)N(c1ccccc1)N1CCN(c2cc(C(C)C)c(O)c(C(C)C)c2)CC1 [Cpd-45] | 5 to 10 mg/kg | 5 to 10 mg/kg | 0.38 to 0.58 min | 9.45 to 21.03 min | 21.22 to 30.92 min | 
10 | CCC(=O)N(c1ccccc1)N1CCN(c2cc(C(C)C)c(O)c(C(C)C)c2)CC1 [Cpd-46] | 5 to 10 mg/kg | 5 to 10 mg/kg | 1.58 min | 2.17 min | 12.95 min | 
11 | CCOC(=O)N(c1ccccc1)N1CCN(c2cc(C(C)C)c(O)c(C(C)C3CC3)c2)CC1 (stereo not drawn) [Cpd-53] | 5 to 10 mg/kg | < 5 mg/kg | 0.47 to 1.27 min | 2.00 to 37.20 min | 27.75 to 167.40 min | 
12 | CCOC(=O)N(c1cccc(Cl)c1)N1CCN(c2cc(C(C)C)c(O)c(C(C)C)c2)CC1 [Cpd-61] | 10 to 20 mg/kg | 10 to 20 mg/kg | 0.55 to 1.25 min | 4.15 to 41.88 min | 89.98 to 162.23 min | 
13 | CCOC(=O)N(c1cccc(OC)c1)N1CCN(c2cc(C(C)C)c(O)c(C(C)C)c2)CC1 [Cpd-63] | 20 to 40 mg/kg | 10 to 20 mg/kg | 0.18 to 0.50 min | 6.92 to 33.82 min | 50.33 to 193.58 min | 
14 | CCOC(=O)N(c1ccc(Cl)cc1)N1CCN(c2cc(C(C)C)c(O)c(C(C)C)c2)CC1 [Cpd-65] | 10 to 20 mg/kg | 10 to 20 mg/kg | 0.92 to 1.17 min | 11.30 to 16.67 min | 101.42 to 123.97 min | 
15 | CCOC(=O)N(c1ccc(C)cc1)N1CCN(c2cc(C(C)C)c(O)c(C(C)C)c2)CC1 [Cpd-66] | 20 to 40 mg/kg | 20 to 40 mg/kg | 0.22 min | 40.40 min | 115.20 min | 
16 | CC(C)c1cc(N2CCC(CC(=O)OC(C)(C)C)CC2)cc([C@H](C)C2CC2)c1O [Cpd-81] |  | < 5 mg/kg | 0.18 to 0.75 min | 9.28 to 40.37 min | 27.22 to 57.86 min | 
17 | COC(=O)CCC1CCN(c2cc(C(C)C)c(O)c([C@H](C)C3CC3)c2)CC1 [Cpd-82] |  | < 5 mg/kg | 0.17 to 0.52 min | 0.87 to 3.42 min | 3.67 to 13.02 min | 
18 | COC(=O)C1CCN(c2cc(C(C)C)c(O)c([C@H](C)C3CC3)c2)CC1 [Cpd-84-1] |  | < 5 mg/kg | 0.43 to 0.77 min | 0.77 to 4.62 min | 5.72 to 10.28 min | 
19 | COC(=O)C1CCN(c2cc(C(C)C)c(O)c([C@H](C)C3CC3)c2)CC1 [Cpd-84] |  |  | 0.30 to 0.75 min | 1.10 to 17.23 min | 18.08 to 35.02 min | A (key: A≤5 mg/kg; 5 mg/kg<B≤10 mg/kg; 10 mg/kg<C≤20 mg/kg; 20 mg/kg<D≤40 mg/k; E>40 mg/kg)
20 | CC(C)c1cc(N2CCC(C(=O)OC(C)(C)C)CC2)cc([C@H](C)C2CC2)c1O [Cpd-85-1] |  | < 5 mg/kg | 0.40 to 1.33 min | 1.38 to 29.00 min | 20.97 to 44.48 min | 
21 | CC(C)c1cc(N2CCC(C(=O)OC(C)(C)C)CC2)cc([C@H](C)C2CC2)c1O [Cpd-85] |  |  | 0.18 to 0.55 min | 1.28 to 4.92 min | 5.05 to 15.13 min | A (key: A≤5 mg/kg; 5 mg/kg<B≤10 mg/kg; 10 mg/kg<C≤20 mg/kg; 20 mg/kg<D≤40 mg/k; E>40 mg/kg)
22 | COC(=O)CN1CC=C(c2cc(C(C)C)c(O)c([C@H](C)C3CC3)c2)CC1 [Cpd-86] |  | < 5 mg/kg | 0.17 to 0.20 min | 1.15 to 10.33 min | 16.40 to 19.62 min | 
23 | COC(=O)CN1CCC(N(CC(=O)OC)c2cc(C(C)C)c(O)c([C@H](C)C3CC3)c2)CC1 [Cpd-87] |  | 10 to 20 mg/kg | 0.42 min | 1.85 min | 19.32 min | 
24 | C=C[C@@H](C)c1cc(N2CCN(CC(=O)OC)CC2)cc(C(C)C)c1O [Cpd-89] |  | 10 to 20 mg/kg | 0.18 min | 0.88 min | 22.78 min | 
25 | CCOC(=O)N(c1cccc(C#N)c1)N1CCN(c2cc(C(C)C)c(O)c(C(C)C)c2)CC1 [Cpd-95] |  | 20 to 40 mg/kg | 0.72 min | 13.75 min | 54.33 min | 
26 | CCOC(=O)N(c1ccc(OC)c(F)c1)N1CCN(c2cc(C(C)C)c(O)c(C(C)C)c2)CC1 [Cpd-101] |  | 10 to 20 mg/kg | 0.70 to 0.73 min | 2.05 to 2.58 min | 38.73 to 57.17 min | 
27 | CCOC(=O)N(c1ccc(OC)c(Br)c1)N1CCN(c2cc(C(C)C)c(O)c(C(C)C)c2)CC1 [Cpd-103] |  | 20 to 40 mg/kg | 0.15 min | 14.85 min | 107.67 min | 
28 | CCOC(=O)N(c1cccc(Cl)c1)N1CCN(c2cc(C(C)C)c(O)c([C@@H](C)C3CC3)c2)CC1 [Cpd-106] |  | 10 to 20 mg/kg | 1.55 to 1.60 min | 3.35 to 24.10 min | 98.82 to 103.67 min | 
29 | CCOC(=O)N(Cc1ccoc1)N1CCN(c2cc(C(C)C)c(O)c(C(C)C)c2)CC1 [Cpd-126] |  | 10 to 20 mg/kg | 0.42 min | 14.90 min | 21.85 min | 
30 | CCOC(=O)N(Cc1cccc(Cl)c1)N1CCN(c2cc(C(C)C)c(O)c(C(C)C)c2)CC1 [Cpd-127] |  | 5 to 10 mg/kg | 0.55 min | 21.20 min | 71.18 min | 
